Experimental findings from ChEMBL document CHEMBL5465560, “Selectivity Literature for EUbOPEN Chemogenomic Library” (2024) are described below.

Molecules are shown by their SMILES.

The target of assay [1] is T1, MAP/microtubule affinity-regulating kinase 4 (Homo sapiens) (UniProt Q96L34).
T1 sequence (whole entry): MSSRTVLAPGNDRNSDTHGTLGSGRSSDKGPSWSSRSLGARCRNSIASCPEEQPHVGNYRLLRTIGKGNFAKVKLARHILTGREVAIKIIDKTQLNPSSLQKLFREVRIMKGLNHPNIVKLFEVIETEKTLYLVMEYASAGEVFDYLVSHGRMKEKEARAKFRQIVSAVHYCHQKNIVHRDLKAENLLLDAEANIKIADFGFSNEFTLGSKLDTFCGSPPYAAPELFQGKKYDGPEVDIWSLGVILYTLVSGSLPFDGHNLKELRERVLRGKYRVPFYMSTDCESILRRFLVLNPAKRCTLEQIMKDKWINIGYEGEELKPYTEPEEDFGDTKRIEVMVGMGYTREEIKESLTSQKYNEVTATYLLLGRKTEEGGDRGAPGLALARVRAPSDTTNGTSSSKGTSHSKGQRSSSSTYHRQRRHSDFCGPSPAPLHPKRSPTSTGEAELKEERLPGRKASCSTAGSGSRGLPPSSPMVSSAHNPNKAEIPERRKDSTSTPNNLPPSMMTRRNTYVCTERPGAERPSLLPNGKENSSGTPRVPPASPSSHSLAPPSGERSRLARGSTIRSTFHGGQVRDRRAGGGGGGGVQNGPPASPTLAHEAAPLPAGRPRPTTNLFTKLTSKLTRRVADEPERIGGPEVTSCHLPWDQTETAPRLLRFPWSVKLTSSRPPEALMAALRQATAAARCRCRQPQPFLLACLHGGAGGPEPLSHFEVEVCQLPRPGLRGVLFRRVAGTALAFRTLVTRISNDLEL
Put plainly: Selectivity interaction (Kinase panel (DSF assay)) EUB0001558a MARK4.

For assay [2], the target named is Proto-oncogene tyrosine-protein kinase Src (Homo sapiens, UniProt P12931). Nature of the assay: Selectivity interaction (KinomeScan (DiscoverX)) EUB0000092b SRC. Particulars: at 10 µM.
Sequence of Proto-oncogene tyrosine-protein kinase Src (P12931 2-536 limits assumed): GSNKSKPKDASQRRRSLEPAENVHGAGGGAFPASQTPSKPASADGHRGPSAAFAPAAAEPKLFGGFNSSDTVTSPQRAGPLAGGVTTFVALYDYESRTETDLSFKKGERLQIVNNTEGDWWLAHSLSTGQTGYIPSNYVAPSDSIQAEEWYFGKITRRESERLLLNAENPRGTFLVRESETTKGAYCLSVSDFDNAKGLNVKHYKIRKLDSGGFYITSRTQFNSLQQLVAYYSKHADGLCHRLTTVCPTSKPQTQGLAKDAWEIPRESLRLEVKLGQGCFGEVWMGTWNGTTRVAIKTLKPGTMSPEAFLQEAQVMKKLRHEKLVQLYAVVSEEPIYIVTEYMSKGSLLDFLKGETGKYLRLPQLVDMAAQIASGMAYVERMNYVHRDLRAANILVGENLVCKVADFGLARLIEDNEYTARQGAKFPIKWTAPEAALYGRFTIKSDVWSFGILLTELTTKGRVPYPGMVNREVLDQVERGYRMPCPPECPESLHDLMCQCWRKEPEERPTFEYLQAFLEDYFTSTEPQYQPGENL
Assay [3] concerns Tyrosine-protein kinase ABL1 (Homo sapiens), P00519 [H396P]. Nature of the assay: Selectivity interaction (KinomeScan (DiscoverX)) EUB0000045b ABL1. Particulars: at 1 µM.
Assay [4] has as its target Serine/threonine-protein kinase 24 (Homo sapiens) (UniProt Q9Y6E0). Nature of the assay: Selectivity interaction (Kinase panel (Z-LYTE Assay)) EUB0001632a STK24. Particulars: at 10 µM.
The target in assay [5] is Activin receptor type-2B (Homo sapiens) (UniProt Q13705). Put plainly: Selectivity interaction (KinomeScan (DiscoverX)) EUB0000607a ACVR2B. Particulars: at 10 µM.
Sequence of Activin receptor type-2B (Homo sapiens) (Q13705 whole entry): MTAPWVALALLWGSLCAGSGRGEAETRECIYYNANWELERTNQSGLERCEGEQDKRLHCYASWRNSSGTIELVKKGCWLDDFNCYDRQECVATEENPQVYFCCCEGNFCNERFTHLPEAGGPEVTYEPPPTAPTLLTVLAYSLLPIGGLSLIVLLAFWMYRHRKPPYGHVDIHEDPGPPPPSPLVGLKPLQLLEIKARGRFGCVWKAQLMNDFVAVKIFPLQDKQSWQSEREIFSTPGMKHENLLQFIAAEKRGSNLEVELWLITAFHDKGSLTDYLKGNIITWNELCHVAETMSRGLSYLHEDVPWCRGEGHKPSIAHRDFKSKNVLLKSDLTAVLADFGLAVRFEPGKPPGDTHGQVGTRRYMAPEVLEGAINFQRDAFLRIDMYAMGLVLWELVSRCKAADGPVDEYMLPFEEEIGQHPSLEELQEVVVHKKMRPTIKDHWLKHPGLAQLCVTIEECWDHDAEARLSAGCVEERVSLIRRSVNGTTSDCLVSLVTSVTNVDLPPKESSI
Assay [6] deals with BDNF/NT-3 growth factors receptor (Homo sapiens) (UniProt Q16620). Put plainly: Selectivity interaction (KinomeScan (DiscoverX)) EUB0000607a NTRK2. Particulars: at 10 µM.
Sequence of BDNF/NT-3 growth factors receptor (Homo sapiens) (Q16620 32-822 limits assumed): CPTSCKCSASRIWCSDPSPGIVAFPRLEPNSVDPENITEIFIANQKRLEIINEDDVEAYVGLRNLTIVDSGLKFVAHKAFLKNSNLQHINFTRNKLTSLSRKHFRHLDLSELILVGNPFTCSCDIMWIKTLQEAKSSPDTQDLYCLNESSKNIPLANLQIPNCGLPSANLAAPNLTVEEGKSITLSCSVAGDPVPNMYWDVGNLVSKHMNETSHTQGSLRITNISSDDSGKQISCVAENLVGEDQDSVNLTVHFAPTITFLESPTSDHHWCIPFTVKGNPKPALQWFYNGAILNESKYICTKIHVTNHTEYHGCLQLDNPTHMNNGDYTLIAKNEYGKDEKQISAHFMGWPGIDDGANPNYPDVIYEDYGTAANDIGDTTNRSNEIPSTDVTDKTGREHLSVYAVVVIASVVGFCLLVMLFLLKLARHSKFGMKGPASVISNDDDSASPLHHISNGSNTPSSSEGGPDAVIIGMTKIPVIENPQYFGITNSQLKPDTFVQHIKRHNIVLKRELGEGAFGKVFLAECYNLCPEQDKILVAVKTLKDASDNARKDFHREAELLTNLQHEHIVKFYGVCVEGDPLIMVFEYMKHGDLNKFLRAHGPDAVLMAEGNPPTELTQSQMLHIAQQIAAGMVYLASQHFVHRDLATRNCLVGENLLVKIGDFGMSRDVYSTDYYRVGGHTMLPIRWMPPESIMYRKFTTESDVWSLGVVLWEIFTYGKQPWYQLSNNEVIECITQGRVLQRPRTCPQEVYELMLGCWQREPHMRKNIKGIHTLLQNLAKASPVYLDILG
The target in assay [7] is Calcium/calmodulin-dependent protein kinase kinase 2 (Homo sapiens) (UniProt Q96RR4). Nature of the assay: Selectivity interaction (ActivX KiNativ screen (kinase selectivity in THP-1 cell lysates)) EUB0000639a CAMKK2. Format: subcellular. Particulars: lysate, at 5 µM.
Sequence of Calcium/calmodulin-dependent protein kinase kinase 2 (Homo sapiens) (Q96RR4 2-588 limits assumed): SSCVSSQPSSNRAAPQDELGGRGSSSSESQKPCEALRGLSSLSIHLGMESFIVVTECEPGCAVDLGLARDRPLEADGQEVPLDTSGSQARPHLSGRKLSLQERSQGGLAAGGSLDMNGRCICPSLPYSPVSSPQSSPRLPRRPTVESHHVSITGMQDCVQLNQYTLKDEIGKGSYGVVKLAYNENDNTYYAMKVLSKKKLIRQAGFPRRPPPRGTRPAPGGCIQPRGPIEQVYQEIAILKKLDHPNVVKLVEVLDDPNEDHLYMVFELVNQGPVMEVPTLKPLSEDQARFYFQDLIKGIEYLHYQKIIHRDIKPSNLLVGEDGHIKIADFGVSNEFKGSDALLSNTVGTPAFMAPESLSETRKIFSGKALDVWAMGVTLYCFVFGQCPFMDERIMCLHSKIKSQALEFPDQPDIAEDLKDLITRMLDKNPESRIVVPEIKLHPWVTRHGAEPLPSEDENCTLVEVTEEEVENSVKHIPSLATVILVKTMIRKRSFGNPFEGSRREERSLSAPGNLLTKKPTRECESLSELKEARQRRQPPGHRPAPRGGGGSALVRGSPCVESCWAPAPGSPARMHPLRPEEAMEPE
The target in assay [8] is MAP/microtubule affinity-regulating kinase 3 (Homo sapiens) (UniProt P27448). Put plainly: Selectivity interaction (KinomeScan (DiscoverX)) EUB0001619a MARK3. Particulars: at 1 µM.
Sequence of MAP/microtubule affinity-regulating kinase 3 (Homo sapiens) (P27448 whole entry, looked up): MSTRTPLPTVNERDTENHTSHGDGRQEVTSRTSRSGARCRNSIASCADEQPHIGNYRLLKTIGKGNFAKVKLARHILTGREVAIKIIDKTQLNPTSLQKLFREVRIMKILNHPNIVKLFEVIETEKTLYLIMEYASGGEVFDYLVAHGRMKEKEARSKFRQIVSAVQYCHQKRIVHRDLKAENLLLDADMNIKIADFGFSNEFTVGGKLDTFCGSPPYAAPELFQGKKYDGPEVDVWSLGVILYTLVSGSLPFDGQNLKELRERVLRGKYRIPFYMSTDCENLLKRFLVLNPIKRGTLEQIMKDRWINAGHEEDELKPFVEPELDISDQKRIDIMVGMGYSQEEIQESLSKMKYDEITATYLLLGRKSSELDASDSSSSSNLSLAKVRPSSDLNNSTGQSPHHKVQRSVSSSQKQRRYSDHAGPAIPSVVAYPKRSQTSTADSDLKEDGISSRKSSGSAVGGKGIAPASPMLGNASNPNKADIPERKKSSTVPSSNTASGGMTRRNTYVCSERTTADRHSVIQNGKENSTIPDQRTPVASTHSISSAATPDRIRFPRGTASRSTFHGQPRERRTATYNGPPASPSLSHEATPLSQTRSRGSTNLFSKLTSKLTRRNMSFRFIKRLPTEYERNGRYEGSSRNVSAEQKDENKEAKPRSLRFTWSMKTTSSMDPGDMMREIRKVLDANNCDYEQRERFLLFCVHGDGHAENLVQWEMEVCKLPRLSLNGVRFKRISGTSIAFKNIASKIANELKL
For assay [9], the target named is T2, Rhodopsin kinase GRK1 (Homo sapiens) (UniProt Q15835).
T2 sequence (whole entry): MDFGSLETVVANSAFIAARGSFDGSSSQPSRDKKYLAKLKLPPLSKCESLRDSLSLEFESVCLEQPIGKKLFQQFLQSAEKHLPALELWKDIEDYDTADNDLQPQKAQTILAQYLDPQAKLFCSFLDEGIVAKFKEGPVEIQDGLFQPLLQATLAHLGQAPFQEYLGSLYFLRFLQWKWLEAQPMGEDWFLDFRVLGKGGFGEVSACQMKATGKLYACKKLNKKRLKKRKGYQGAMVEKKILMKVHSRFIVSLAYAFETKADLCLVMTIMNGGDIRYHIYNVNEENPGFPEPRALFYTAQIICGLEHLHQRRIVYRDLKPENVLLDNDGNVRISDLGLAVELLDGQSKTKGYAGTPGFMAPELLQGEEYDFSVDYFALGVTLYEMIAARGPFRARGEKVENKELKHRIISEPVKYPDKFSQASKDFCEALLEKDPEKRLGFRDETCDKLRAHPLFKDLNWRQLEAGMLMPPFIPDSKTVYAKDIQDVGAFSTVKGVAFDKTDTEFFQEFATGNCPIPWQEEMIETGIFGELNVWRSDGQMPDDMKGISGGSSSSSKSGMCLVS
Nature of the assay: Selectivity interaction (KinomeScan (DiscoverX)) EUB0001619a GRK1. Particulars: at 1 µM.

Assay [10] addresses T1, MAP/microtubule affinity-regulating kinase 4 (Homo sapiens). Put plainly: Selectivity interaction (Kinase panel (KiNativ target engagement assay in Jurkat cells)) EUB0001635a MARK4. Format: cell-based. Particulars: Selectivity number of off-targets 0.0, Selectivity number of targets 233.0, Source Knowledge https://www.sciencedirect.com/science/article/pii/S2451945619300674?via%3Dihub, at 1 µM.

In assay [11] the target is T3, Ephrin type-B receptor 4 (Homo sapiens) (UniProt P54760).
T3 sequence (whole entry): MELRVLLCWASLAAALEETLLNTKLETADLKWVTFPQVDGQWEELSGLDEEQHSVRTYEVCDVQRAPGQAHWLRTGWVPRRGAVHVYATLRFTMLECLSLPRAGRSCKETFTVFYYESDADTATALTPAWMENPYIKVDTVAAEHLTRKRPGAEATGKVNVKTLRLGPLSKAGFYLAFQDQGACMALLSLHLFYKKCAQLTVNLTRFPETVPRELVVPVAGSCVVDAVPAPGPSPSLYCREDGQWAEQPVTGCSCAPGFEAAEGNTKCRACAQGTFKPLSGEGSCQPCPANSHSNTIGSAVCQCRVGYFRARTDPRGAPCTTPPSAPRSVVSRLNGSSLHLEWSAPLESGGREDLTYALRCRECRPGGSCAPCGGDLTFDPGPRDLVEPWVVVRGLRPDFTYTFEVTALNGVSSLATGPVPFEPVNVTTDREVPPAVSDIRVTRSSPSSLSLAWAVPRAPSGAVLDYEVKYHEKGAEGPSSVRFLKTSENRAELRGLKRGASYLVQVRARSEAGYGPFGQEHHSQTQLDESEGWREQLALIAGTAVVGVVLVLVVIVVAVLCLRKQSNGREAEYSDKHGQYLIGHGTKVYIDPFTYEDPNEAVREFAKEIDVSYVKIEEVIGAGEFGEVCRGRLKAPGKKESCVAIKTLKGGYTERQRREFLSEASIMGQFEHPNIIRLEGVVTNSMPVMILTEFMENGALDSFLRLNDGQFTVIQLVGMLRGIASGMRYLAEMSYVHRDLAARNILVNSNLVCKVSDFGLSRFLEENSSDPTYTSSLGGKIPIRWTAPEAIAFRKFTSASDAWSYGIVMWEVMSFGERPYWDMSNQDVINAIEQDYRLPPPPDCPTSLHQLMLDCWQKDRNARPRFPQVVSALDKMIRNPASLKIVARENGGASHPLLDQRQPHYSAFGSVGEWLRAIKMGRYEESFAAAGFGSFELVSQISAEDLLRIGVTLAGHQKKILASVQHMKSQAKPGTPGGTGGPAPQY
Nature of the assay: Selectivity interaction (KinomeScan (DiscoverX)) EUB0000618a EPHB4. Particulars: at 10 µM.

Sequence of Serine/threonine-protein kinase 24 (Homo sapiens) (Q9Y6E0 whole entry, looked up): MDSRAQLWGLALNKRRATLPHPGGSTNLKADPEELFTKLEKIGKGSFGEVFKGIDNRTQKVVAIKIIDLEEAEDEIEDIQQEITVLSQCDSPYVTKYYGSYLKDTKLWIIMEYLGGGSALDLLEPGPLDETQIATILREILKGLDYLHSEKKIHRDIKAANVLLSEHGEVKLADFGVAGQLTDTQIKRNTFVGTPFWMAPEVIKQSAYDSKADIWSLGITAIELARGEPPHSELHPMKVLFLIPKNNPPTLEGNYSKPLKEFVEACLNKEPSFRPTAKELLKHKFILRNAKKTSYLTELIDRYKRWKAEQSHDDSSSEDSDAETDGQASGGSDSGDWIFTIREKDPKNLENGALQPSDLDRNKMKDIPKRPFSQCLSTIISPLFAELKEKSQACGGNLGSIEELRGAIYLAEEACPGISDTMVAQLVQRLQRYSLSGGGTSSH

Turning to `CC(C)(O)[C@H](F)CN1Cc2cc(NC(=O)c3cnn4cccnc34)c(N3CCOCC3)cc2C1=O`, the dTM in [1] worked out at 1.6 K.
`CCC(=O)N1CCN(c2ccc(-n3c(=O)ccc4cnc5ccc(-c6cnc7ccccc7c6)cc5c43)cc2C(F)(F)F)CC1` displayed a % of control in assay [2] of 95%.
In assay [3], `C=CC(=O)Nc1cc(-n2c(=O)ccc3cnc4ccc(-c5ccc(NS(C)(=O)=O)cc5)cc4c32)ccc1C` gave a % of control of 74%.
`Cn1cc(-n2cnc3c(NCc4nc5cc(Cl)c(Cl)cc5[nH]4)nc(N4CCOCC4)nc32)cn1`: the % of control in assay [4] stood at 1.16%.
Take `CNC(=O)Nc1ccc(-c2nc(N3CC4CCC(C3)O4)c3cnn(C4CCC5(CC4)OCCO5)c3n2)cc1`: the % of control in assay [5] was 77%; in [6], 100%.
For the compound `CC[C@@H]1[C@H](F)C(=O)N[C@@H]1COc1nccc2cc(C(N)=O)c(OC)cc12` [ZIMLOVISERTIB], the % of inhibition in assay [7] came out at 56.9%.
With `N#Cc1cccc(-c2c[nH]c3ncnc(N4CCOCC4)c23)c1`, the % of control in assay [8] came to 100%; in assay [9], 74%.
Consider `C=CC(=O)Nc1ccc(C(=O)Nc2[nH]nc3c2CN(C(=O)N[C@H](CN(C)C)c2ccccc2)C3(C)C)cc1`, for which the % of engagement in [10] came out at 37%.
Take `O[C@H]1CC[C@H](Nc2ncc3nc(Nc4c(F)cc(F)cc4F)n([C@H]4CCOC4)c3n2)CC1`: in assay [11], the % of control was determined as 100%.
